# Data taken from patent publication US8178535B2, “Substituted sulfonamide compounds having bradykinin 1 receptor activity and use thereof as medicaments” (Gruenenthal GmbH, priority 2008, dated 2012).
# Key:
# [1] = biological target: T1, human B1R receptor (hB1R) (Homo sapiens, UniProt P46663); assay: FLIPR Ca2+ assay (Fluo-4) on CHO K1 cells stably transfected with the human B1R gene; format: cell-based; details: CHO-K1; test substance 10 μM; agonist Lys-Des-Arg9-bradykinin 0.5 nM; % inhibition compared to the maximum achievable inhibition
# T1 construct: host or cells: CHO K1 cells
# T1 sequence (P46663 1-353): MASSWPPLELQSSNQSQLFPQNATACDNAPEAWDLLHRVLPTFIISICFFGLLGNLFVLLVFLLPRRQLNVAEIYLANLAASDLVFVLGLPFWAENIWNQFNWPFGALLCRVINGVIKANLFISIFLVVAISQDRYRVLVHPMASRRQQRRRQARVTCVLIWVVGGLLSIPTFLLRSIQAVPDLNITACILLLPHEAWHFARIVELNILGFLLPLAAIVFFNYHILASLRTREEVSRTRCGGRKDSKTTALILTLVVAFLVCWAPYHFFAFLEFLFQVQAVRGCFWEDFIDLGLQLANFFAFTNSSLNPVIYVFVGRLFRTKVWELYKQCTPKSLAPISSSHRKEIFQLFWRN
# Method in brief: (§1)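 CHO K1 cells stably expressing human or rat B1R, Fluo-4 loaded, read by FLIPR (Ex 488/Em 540, peak fluorescence). Compound at 10 μM gives % activation vs agonist. After 10 min, agonist added (human: Lys-Des-Arg9-bradykinin 0.5 nM; rat: Des-Arg9-bradykinin 100 nM); % inhibition relative to maximal achievable inhibition.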
# [2] = biological target: T2, B1R receptor of rats (rB1R) (Rattus norvegicus, UniProt P97583); assay: FLIPR Ca2+ assay (Fluo-4) on CHO K1 cells stably transfected with the B1R gene of rats; format: cell-based; details: CHO-K1; test substance 10 μM; agonist Des-Arg9-bradykinin 100 nM; % inhibition compared to the maximum achievable inhibition
# T2 construct: host or cells: CHO K1 cells
# T2 sequence (P97583 1-337): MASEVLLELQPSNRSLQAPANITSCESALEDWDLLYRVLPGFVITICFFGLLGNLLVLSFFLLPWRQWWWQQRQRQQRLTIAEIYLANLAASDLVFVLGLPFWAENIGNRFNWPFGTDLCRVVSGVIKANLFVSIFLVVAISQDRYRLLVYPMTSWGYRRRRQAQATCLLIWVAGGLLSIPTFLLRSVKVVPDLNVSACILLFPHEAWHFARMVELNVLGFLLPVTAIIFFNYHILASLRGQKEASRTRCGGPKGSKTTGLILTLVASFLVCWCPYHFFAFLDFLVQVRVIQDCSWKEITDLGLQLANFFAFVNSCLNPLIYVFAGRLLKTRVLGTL
# Method in brief: as §1
SMILES,inhibition at 10 µM [1],inhibition at 10 µM [2]
"COc1cc(C)c(S(=O)(=O)N2CCCCC2COCC(=O)N2CCn3cccc3C2c2cccnc2)c(C)c1 (stereo not shown) [(21), 2-((1-(4-methoxy-2,6-dimethylphenylsulfonyl)piperidin-2-yl)methoxy)-1-(1-(pyridin-3-yl)-3,4-dihydropyrrolo[1,2-a]pyrazin-2(1H)-yl)ethanone]",100%,98%
"CCCC1c2cccn2CCN1C(=O)COCC1CCCCN1S(=O)(=O)c1c(C)cc(C)cc1C (stereo not shown) [(56), 2-((1-(mesitylsulfonyl)piperidin-2-yl)methoxy)-1-(1-propyl-3,4-dihydropyrrolo[1,2-a]pyrazin-2(1H)-yl)ethanone]",95%,102%
"COc1cc(C)c(S(=O)(=O)N2CCCCC2COCC(=O)N2CCn3c(CN(C)C)ccc3C2c2ccccc2)c(C)c1 (stereo not shown) [(61), 1-(6-((dimethylamino)methyl)-1-phenyl-3,4-dihydropyrrolo[1,2-a]pyrazin-2(1H)-yl)-2-((1-(4-methoxy-2,6-dimethylphenylsulfonyl)piperidin-2-yl)methoxy)ethanone]",102%,101%
"Cc1cc(S(=O)(=O)N2CCCCC2CCC(=O)N2CCn3c(CCCN4CCCC4)ccc3C2)c(C)cc1Cl (stereo not shown) [(18), 3-(1-(4-chloro-2,5-dimethylphenylsulfonyl)piperidin-2-yl)-1-(6-(3-(pyrrolidin-1-yl)propyl)-3,4-dihydropyrrolo[1,2-a]pyrazin-2(1H)-yl)propan-1-one]",90%,99%
"COc1cc(C)c(S(=O)(=O)N2CCCCC2COCC(=O)N2CCn3cccc3C2C(C)(C)C)c(C)c1 (stereo not shown) [(19), 1-(1-tert-butyl-3,4-dihydropyrrolo[1,2-a]pyrazin-2(1H)-yl)-2-((1-(4-methoxy-2,6-dimethyl-phenylsulfonyl)piperidin-2-yl)methoxy)ethanone]",102%,96%
"O=C(CC1CCCCN1S(=O)(=O)c1cccc(C(F)(F)F)c1)N1CCn2c(ccc2-c2cccnc2)C1 (stereo not shown) [(93), 1-(6-(Pyridin-3-yl)-3,4-dihydropyrrolo[1,2-a]pyrazin-2(1H)-yl)-2-(1-(3-(trifluoromethyl)phenylsulfonyl)piperidin-2-yl)ethanone]",18%,55%
"COc1cc(C)c(S(=O)(=O)N2CCCCC2COCC(=O)N2CCn3cccc3C2C(C)C)c(C)c1 (stereo not shown) [(72), 1-(1-isopropyl-3,4-dihydropyrrolo[1,2-a]pyrazin-2(1H)-yl)-2-((1-(4-methoxy-2,6-dimethylphenylsulfonyl)piperidin-2-yl)methoxy)ethanone]",102%,102%
"CCC1c2ccc(CN(C)C)n2CCN1C(=O)COCC1CCCCN1S(=O)(=O)c1c(C)cc(C)cc1C (stereo not shown) [(54), 1-(6-((dimethylamino)methyl)-1-ethyl-3,4-dihydropyrrolo[1,2-a]pyrazin-2(1H)-yl)-2-((1-(mesitylsulfonyl)piperidin-2-yl)methoxy)ethanone]",102%,100%
"Cc1cc(C)c(S(=O)(=O)N2CCCCC2COCC(=O)N2CCn3cccc3C2c2cccc(C(F)(F)F)c2)c(C)c1 (stereo not shown) [(44), 2-((1-(mesitylsulfonyl)piperidin-2-yl)methoxy)-1-(1-(3-(trifluoromethyl)phenyl)-3,4-dihydropyrrolo[1,2-a]pyrazin-2(1H)-yl)ethanone]",10%,79%
"Cc1cc(C)c(S(=O)(=O)N2CCCCC2COCC(=O)N2CCn3cccc3C2c2ccccc2)c(C)c1 (stereo not shown) [(39), 2-((1-(mesitylsulfonyl)piperidin-2-yl)methoxy)-1-(1-phenyl-3,4-dihydropyrrolo[1,2-a]pyrazin-2(1H)-yl)ethanone]",77%,99%
"COc1cc(C)c(S(=O)(=O)N2CCCCC2COCC(=O)N2CCn3cccc3C2C)c(C)c1 (stereo not shown) [(20), 2-((1-(4-methoxy-2,6-dimethylphenylsulfonyl)piperidin-2-yl)methoxy)-1-(1-methyl-3,4-dihydropyrrolo[1,2-a]pyrazin-2(1H)-yl)ethanone]",101%,99%
